Results published in patent US8153773B2, “Synthesis and use of anti-reverse phosphorothioate analogs of the messenger RNA cap” (Board of Supervisors of Louisiana State University and …, priority 2007, dated 2012).

What was measured:
murine eIF4E (28-217) = target: T1, murine eIF4E (28-217) (Mus musculus, UniProt P63073); test: Binding affinities for eIF4E by fluorescence quenching; conditions: murine eIF4E (28-217); for KAS: equilibrium association constant, fluorescence quenching; for ΔG°: binding free energy calculated from KAS
T1 construct: (28-217) to phosphorothioate cap analogs, as determined
Experimental: Binding affinities of S analogs for murine eIF4E were determined by fluorescence quenching. Fluorescence titration measurements were carried out on an LS-50B spectrofluorometer (Perkin Elmer Co.) in 50 mM HEPES/KOH (pH 7.2), 100 mM KCl, 0.5 mM EDTA, 1 mM DTT at 20.0±0.2° C. Aliquots of 1 μl increasing concentration of cap analogue solutions were added to 1.4 ml of […] solutions. Fluorescence intensities (excitation at 280 nm with 2.5 nm bandwidth and detection at 337 nm with 4 nm bandwidth and 290 nm cut-off filter) were corrected taking into account sample dilution and the inner filter effect. Equilibrium association constants (KAS) were determined by fitting the theoretical dependence of the fluorescence intensity on the total concentration of cap analogue to the experimental data points according to equation described previously (See A. Niedzwiecka et al., “Biophysical studies of eIF4E cap-binding protein: recognition of mRNA 5′ cap structure and synthetic fragments of eIF4G and 4E-BP1 proteins,” J. Mol. Biol., vol. 319, pp. 615-635 (2002)). The concentration of protein was fitted as a free parameter of equilibrium equation showing amount of “active” protein. The final KAS was calculated as a weighted average of three to ten independent titrations, with the weights taken as the reciprocals of the numerical standard deviations squared. Numerical nonlinear least-squares regression analysis was performed using ORGIN 6.0 (Microcal Software Inc., USA). The Gibbs free energy of binding was calculated from the KAS value according to the standard equation ΔG°=−RTlnKAS.

hDcp2 = hDcp2 (Homo sapiens, UniProt Q8IU60); test: In vitro RNA decapping assay with recombinant hDcp2; type: biochemical; conditions: capped 32P-labeled short RNA, recombinant hDcp2, anion exchange HPLC (FIG. 6)
Experimental: Dcp2 activity was measured with capped 48-nt oligonucleotides as substrates, a truncated form of luciferase mRNA (48 nucleotides). GST-hDcp2 was expressed in Escherichia coli and purified as described by Z. Wang et al., “The hDcp2 protein is a mammalian mRNA decapping enzyme,” Proc. Natl. Acad. Sci. U.S.A., vol. 99, pp. 12663-12668 (2002). Capped oligonucleotides were first subjected to digestion with GST-hDcp2 at 37° C. for 2 h in decapping buffer (10 mM Tris-HCl, pH 7.5, 100 mM potassium acetate, 2 mM magnesium acetate, 0.5 mM MnCl2, 2 mM dithiothreitol, and 0.1 mM spermine). See C. Piccirillo et al., “Functional characterization of the mammalian mRNA decapping enzyme hDcp2,” RNA, vol. 9, pp. 1138-1147 (2003). The reaction mixture was then extracted once with an equal volume of phenol and twice with chloroform, and RNA was precipitated with ethanol. Products of the decapping reaction were further digested with a cocktail of ribonucleases (RiboShredder; Epicentre) at 37° C. for 1 h. The products were resolved by anion-exchange HPLC on a 4.6×250-mm Partisil 10SAX/25 column (Whatman). The gradient consisted of water for 1 min, a linear gradient to 112 mM KH2PO4, pH 4.5, for 20 min, a linear gradient of 112-450 mM KH2PO4 for 15 min, a linear gradient of 450 mM to 1.5 M KH2PO4 for 15 min, and isocratic elution at 1.5 M of KH2PO4 for 9 min, all at a flow rate 1 ml/min.
We tested oligonucleotides capped with either of S-ARCAs for hydrolysis by recombinant hDcp2 to test whether mRNA capped with the various diastereomers of m2^7,2′-OGpppsG and m2^7,2′-OGppspG would differ in their sensitivity to cleavage by Dcp1/Dcp2. See generally Z. Wang et al., “The hDcp2 protein is a mammalian mRNA decapping enzyme,” Proc. Natl. Acad. Sci. U.S.A., vol. 99, pp. 12663-12668 (2002), and Z. Wang et al., “An mRNA Stability Complex Functions with Poly(A)-Binding Protein To Stabilize mRNA In Vitro”, Mol. Cell. Biol., vol. 19, pp. 4552-4560 (1999). Cap analogs used were initially unlabeled, so to follow the products of the digestion reaction we synthesized capped oligonucleotides in the presence of [α-^32P]GTP and a DNA template in which G was the first ribonucleotide specified after the promoter. The oligonucleotides capped with either of the S-ARCAs were subjected to Dcp2 digestion in vitro, after which the products were further digested with a cocktail of ribonucleases (RiboShredder from Epicenter). Any nucleotide on the 5′ side of a G residue acquired a ^32P-labeled 3′-phosphate group after ribonuclease digestion by nearest-neighbor transfer. Anion exchange chromatography was then used to resolve the labeled 3′-nucleoside monophosphates (3′-NMP*), at internal positions in the RNA, from labeled 5′-terminal products (FIG. 6). The latter comprise p3 Gp* derived from uncapped transcripts and m2^7,2′-OGp3 Gp* (when m2^7,2′-OGp3G was used), or pGp* resulting from capped RNA resistant or nonresistant to enzymatic cleavage, respectively. All cap analogs used were ARCAs, which ensured that they were incorporated into RNA exclusively in the correct orientation. This further guaranteed that only one 5′-terminal product (m2^7,2′-OGp3 Gp*) was observed upon ribonuclease treatment. Uncapped RNA is not a substrate for Dcp2, which explains why p3 Gp* product was observed after Dcp2 digestion.
See E. Grudzien et al., “Differential inhibition of mRNA degradation pathways by novel cap analogs,” J. Biol. Chem., vol. 281, pp. 1857-1867 (2006).

DcpS [1] = target: T2, DcpS (Homo sapiens, UniProt Q96C86); test: Enzymatic hydrolysis by human DcpS; type: biochemical; parameters: key: the analogs assigned as resistant remained completely undigested under the applied conditions; the analogs assigned as hydrolyzed were hydrolyzed by DcpS with efficiency comparable to the respective unmodified parent compound; conditions: conditions giving complete degradation of unmodified parent within 40-90 min, RP HPLC
T2 sequence (Q96C86 1-337): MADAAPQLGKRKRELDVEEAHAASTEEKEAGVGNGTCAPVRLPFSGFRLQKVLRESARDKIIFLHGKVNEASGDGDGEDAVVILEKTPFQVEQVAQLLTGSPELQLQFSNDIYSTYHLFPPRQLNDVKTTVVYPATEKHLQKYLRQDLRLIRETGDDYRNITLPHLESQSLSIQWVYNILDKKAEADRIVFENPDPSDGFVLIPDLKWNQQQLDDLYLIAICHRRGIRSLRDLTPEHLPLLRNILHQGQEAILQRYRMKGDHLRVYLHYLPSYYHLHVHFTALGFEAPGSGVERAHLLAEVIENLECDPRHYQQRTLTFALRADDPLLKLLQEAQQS
Experimental: (§1) Human and nematode DcpS were expressed in Escherichia coli according to the procedures described previously (L. S. Cohen et al., “Nematode m7 GpppG and m3(2,2,7)GpppG decapping: activities in Ascaris embryos and characterization of C. elegans scavenger DcpS,” RNA, vol. 10, pp. 1609-1624 (2004)). Both proteins were stored at −80° C. in 20 mM Tris buffer, pH 7.5, containing 50 mM KCl, 0.2 mM EDTA, 1 mM DTT, 0.5 mM PMSF, and 20% glycerol. An appropriate cap analog at 1 mM concentration was treated with 5.0 or 7.0 μl of DcpS (from human or C. elegans, respectively) in 500 μl of 50 mM TRIS buffer, pH=7.9, containing 20 mM of MgCl2 and 60 mM of (NH4)2SO4 at 37° C. for 60-90 min. Every 15-20 min a 100 μl sample was collected from the reaction mixture and deactivated by incubation in 90° C. for 3 min. Collected samples were analyzed without further treatment by analytical RP HPLC using a linear gradient of methanol in 0.1 M KH2PO4, pH=6.0, from 0-50% within 15 min and UV-detection at 260 nm.
(§2) The new series of S-analogs were subjected to in vitro enzymatic hydrolysis catalyzed by DcpS from both human and C. elegans sources. In all experiments, the corresponding unmodified cap analog was used as a positive control, i.e., m^7GpppG for non-ARCA S-analogs and m2^7,2′-OGpppG for S-ARCAs. The amount of DcpS enzyme was optimized to provide complete degradation of the control substrate within 40-90 min. The samples collected from reaction mixtures at various time intervals were analyzed by RP HPLC (as described in Materials and Methods).
(§3) In Table 4, cap analogs at 4 μM concentration were subjected to enzymatic digestion by DcpS in conditions leading to complete degradation of the unmodified parent compound (i.e. m^7GpppG for non-ARCA S-analogs and m2^7,2′-OGpppG for ARCAs) within 40-90 min. Samples collected from reaction mixtures at various time intervals were analysed by RP HPLC with UV detection at 260 nm as described in Materials and Methods. […] The result was unchanged even if the reaction time was extended to 24 h, various amounts of enzyme were used, and composition of the reaction buffer was modified.

DcpS [2] = target: T3, DcpS (Caenorhabditis elegans, UniProt G5EFS4); test: Enzymatic hydrolysis by C. elegans DcpS; type: biochemical; parameters: key: the analogs assigned as resistant remained completely undigested under the applied conditions; the analogs assigned as hydrolyzed were hydrolyzed by DcpS with efficiency comparable to the respective unmodified parent compound; conditions: conditions giving complete degradation of unmodified parent within 40-90 min, RP HPLC
T3 sequence (G5EFS4 1-311): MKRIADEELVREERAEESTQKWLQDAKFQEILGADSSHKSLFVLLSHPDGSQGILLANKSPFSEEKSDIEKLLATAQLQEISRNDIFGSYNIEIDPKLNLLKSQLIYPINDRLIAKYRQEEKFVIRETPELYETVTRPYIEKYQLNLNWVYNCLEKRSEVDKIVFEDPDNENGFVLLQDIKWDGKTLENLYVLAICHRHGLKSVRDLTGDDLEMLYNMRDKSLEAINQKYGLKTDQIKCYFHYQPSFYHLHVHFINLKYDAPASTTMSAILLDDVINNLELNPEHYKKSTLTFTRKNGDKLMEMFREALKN
Experimental: as §1, §2, §3

T1 sequence (P63073 28-217): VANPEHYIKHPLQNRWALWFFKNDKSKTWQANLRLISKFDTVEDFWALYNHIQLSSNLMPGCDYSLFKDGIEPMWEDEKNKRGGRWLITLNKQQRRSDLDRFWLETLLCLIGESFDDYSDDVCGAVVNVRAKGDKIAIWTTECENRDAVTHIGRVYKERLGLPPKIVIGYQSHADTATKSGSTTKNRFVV

| Compound | KAS (murine eIF4E (28-217)) [µM⁻¹] | hydrolysis of capped oligonucleotide by hDcp2 (hDcp2) | Resistance to enzymatic hydrolysis by DcpS (human) (DcpS [1]) | ΔG° (murine eIF4E (28-217)) [kcal/mol] | Resistance to enzymatic hydrolysis by DcpS (from C. elegans) (DcpS [2]) |
| --- | --- | --- | --- | --- | --- |
| CO[C@@H]1[C@H](O)[C@@H](COP(=O)(O)OP(=O)([O-])OP(=O)(O)OP(=O)(O)OC[C@H]2O[C@@H](n3cnc4c(=O)[nH]c(N)nc43)[C@H](O)[C@@H]2O)O[C@H]1n1c[n+](C)c2c(O)nc(N)nc21 [m^7,2′-OGppppG, reference compound] | 99.8 ± 6.0 |  |  |  |  |
| m2^7,2′-OGpppsG |  | no increase in stability toward hDcp2 |  |  |  |
| m2^7,2′-OGpsppG |  | no increase in stability toward hDcp2 |  |  |  |
| m^7GpppsG (D1) [Compound 1a] | 23.6 ± 0.8 |  | hydrolyzed | -9.88 ± 0.02 | hydrolyzed |
| m^7GpppsG (D2) [Compound 1b] | 13.1 ± 0.8 |  | hydrolyzed | -9.54 ± 0.03 | hydrolyzed |
| m^7GppspG (D1) [Compound 2a] | 45.0 ± 1.1 |  | hydrolyzed | -10.26 ± 0.01 | hydrolyzed |
| m^7GppspG (D2) [Compound 2b] | 23.0 ± 0.4 |  | hydrolyzed | -9.87 | hydrolyzed |
| m^7GpsppG (D1) [Compound 3a] |  |  | resistant |  | resistant |
| m^7GpsppG (D2) [Compound 3b] |  |  | resistant |  | resistant |
